Experimental data published in patent publication US8716226B2, “3,5 phenyl-substituted beta amino acid derivatives as integrin antagonists” (Saint Louis University, priority 2012, dated 2014).

How the values were obtained:
[1] = target: T1, recombinant human integrin αvβ1 (Homo sapiens, UniProt P05556+P06756); test: Solid phase receptor assay for αvβ1 function; conditions: purified integrin binding to fibronectin-coated plate
T1 construct: purchased R&D Systems 6579-AV
Protocol: Purified human fibronectin (R&D Systems, Inc) diluted to 5 μg/ml in TBS buffer (25 mM Tris 7.4, 137 mM NaCl, 2.7 mM KCl, 1 mM CaCl2, 1 mM MgCl2, 1 mM MnCl2) was added to wells (50 μl/well) of a 96-well half-well transparent microtiter plate (Costar 3690), and incubated overnight at 4° C. Wells were washed 3 times with 150 μl TBS, and 150 μl of blocking buffer (TBS with 1% bovine serum albumin) were added. The plate was incubated for 1 hr at 37° C., and then washed 3× with TBS buffer. Purified recombinant human integrin αvβ1 (R&D Systems 6579-AV) was diluted to 2.0 μg/ml in TBS/0.1% bovine serum albumin. Compounds were diluted into the integrin solution and then 50 μl was added to empty wells of the washed fibronectin-coated plate, according to a standard template, with each sample repeated in triplicate. After incubation for one hour at room temperature, the plate was washed 3× with 150 μl of TBS buffer. To each well, 50 μl of 1 μg/ml biotinylated anti-alpha v antibody (R&D Systems) in TBS/0.1% BSA was added, and the plate was covered and incubated for 1 hr at room temperature. After washing the plate 3× with 150 μl of TBS buffer, 50 μl of streptavidin-conjugated horseradish peroxidase (R&D Systems) was added to the wells, and the plate incubated for 20 min at room temperature. […] Plates were read by colorimetric detection at 650 nm wavelength using a Tecan Safire II plate reader.

αvβ5 = target: T2, αvβ5 (Homo sapiens, UniProt P06756+P18084); test: 293/b5 cell adhesion assay for αvβ5 function; type: cell-based; conditions: 293/b5 cells, adhesion to human vitronectin
T2 construct: expressed in transfected cells; host or cells: HEK 293 (293/b5)
Protocol: 293/b5 Cell Adhesion Assay for αvβ5 Function.
Purified human vitronectin (Calbiochem/EMD Biosciences) diluted to 0.25 μg/ml in TS buffer (25 mM Tris 7.4, 150 mM NaCl) was added to wells (100 μl/well) of a 96-well microtiter plate (Immulon 2HB 96-well; VWR Scientific) and incubated overnight at 4° C. The solution in each well was then replaced with 200 μl of blocking buffer (TS with 1% bovine serum albumin), and the plate incubated for 1 hr at 37° C. Compounds were diluted in test tubes to 2× the peak testing concentration in cell adhesion buffer consisting of Hanks Buffered Salts Solution (HBSS, cation-free, Sigma), 0.1% bovine serum albumin, 25 mM HEPES, and 200 μM MnCl2. […] The cells were washed with the cell adhesion buffer, counted using a hemocytometer, centrifuged and resuspended in cell adhesion buffer at 3×10^6 cells/ml. […] Remaining attached cells were detected by addition of 100 μl/well p-nitrophenylphosphate (Sigma) solution (15 mg tablet dissolved in 25 ml 50 mM NaAcetate, pH5; 0.5% Triton-X-100), incubation for 30 min at 37° C., and then addition of 50 μl/well 1N NaOH to stop the enzyme reaction. Plates were read by colorimetric detection at 405 nm wavelength using a Tecan Safire II plate reader. Concentration-response curves were constructed by non-linear regression (best fit) analysis, and IC50 values were calculated for each compound. […]

T1 sequence (P06756 31-889 limits assumed): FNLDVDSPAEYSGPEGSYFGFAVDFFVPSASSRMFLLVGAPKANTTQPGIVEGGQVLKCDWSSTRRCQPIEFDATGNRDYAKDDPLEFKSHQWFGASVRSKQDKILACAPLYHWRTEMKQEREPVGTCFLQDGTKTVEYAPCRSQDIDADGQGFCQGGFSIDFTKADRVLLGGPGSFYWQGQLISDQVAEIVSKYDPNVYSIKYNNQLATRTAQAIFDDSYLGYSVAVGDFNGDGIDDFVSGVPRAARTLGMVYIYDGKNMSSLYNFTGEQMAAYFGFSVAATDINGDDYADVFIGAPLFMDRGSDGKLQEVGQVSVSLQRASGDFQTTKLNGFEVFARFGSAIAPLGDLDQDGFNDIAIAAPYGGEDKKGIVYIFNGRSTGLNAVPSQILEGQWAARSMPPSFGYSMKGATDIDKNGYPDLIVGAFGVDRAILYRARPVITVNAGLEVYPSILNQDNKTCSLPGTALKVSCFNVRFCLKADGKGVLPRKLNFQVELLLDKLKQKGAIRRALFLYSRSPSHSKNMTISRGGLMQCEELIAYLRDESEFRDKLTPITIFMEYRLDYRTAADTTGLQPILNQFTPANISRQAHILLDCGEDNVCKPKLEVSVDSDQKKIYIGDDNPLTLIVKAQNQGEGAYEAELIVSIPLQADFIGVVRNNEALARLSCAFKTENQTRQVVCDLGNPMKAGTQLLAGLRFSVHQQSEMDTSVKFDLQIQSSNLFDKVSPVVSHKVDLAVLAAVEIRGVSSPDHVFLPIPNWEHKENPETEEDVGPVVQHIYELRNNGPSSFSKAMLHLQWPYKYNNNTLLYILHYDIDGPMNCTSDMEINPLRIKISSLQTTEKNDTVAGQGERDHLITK
T1 sequence (P06756 891-992 partner limits assumed): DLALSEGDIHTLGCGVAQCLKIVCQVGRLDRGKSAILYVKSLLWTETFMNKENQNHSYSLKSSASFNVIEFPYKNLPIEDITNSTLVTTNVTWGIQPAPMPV
T1 sequence (P05556 21-728 limits assumed): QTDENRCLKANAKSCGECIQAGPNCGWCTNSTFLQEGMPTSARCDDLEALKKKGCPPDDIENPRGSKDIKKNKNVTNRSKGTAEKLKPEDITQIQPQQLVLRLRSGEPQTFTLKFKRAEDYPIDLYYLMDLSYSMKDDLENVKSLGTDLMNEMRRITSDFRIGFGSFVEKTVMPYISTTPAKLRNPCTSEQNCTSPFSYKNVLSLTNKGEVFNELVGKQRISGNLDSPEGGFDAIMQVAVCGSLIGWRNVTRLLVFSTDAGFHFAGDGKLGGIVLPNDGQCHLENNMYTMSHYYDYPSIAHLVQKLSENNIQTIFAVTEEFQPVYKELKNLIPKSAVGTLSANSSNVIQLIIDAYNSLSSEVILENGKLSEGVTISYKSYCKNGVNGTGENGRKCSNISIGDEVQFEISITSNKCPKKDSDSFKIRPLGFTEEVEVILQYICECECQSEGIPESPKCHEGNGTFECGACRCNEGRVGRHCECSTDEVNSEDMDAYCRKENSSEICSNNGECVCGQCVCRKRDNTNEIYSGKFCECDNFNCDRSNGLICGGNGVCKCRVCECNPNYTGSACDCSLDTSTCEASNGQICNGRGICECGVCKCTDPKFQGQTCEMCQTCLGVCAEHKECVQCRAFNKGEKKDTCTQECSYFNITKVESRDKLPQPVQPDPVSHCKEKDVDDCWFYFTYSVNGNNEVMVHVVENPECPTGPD
T2 sequence (P06756 31-889 limits assumed): as the sequence (P06756 31-889 limits assumed) above
T2 sequence (P06756 891-1048 partner limits assumed): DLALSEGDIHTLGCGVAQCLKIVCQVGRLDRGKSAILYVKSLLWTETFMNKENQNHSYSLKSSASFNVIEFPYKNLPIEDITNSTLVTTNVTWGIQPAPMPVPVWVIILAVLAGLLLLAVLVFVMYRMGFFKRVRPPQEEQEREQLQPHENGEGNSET
T2 sequence (P18084 24-799): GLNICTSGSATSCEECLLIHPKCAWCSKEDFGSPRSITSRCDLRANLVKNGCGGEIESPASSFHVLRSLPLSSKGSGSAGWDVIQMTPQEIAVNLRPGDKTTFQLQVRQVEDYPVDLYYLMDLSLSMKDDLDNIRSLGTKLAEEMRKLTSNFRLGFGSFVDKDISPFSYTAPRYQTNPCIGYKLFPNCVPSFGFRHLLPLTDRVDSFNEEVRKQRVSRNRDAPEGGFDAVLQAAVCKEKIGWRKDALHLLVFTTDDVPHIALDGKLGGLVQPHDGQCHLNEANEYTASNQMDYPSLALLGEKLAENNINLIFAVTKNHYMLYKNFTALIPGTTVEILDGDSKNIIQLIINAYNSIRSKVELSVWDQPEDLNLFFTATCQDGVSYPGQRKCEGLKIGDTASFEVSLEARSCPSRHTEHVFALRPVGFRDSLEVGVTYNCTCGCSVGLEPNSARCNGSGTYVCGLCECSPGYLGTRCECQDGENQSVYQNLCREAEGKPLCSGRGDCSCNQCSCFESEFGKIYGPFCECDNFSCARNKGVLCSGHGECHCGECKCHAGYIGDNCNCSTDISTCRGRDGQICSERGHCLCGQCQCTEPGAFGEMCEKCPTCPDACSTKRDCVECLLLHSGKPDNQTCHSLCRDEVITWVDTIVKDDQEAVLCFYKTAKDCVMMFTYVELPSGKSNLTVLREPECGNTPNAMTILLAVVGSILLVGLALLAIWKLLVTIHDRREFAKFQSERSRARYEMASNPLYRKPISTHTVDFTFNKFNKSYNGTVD

## CC(C)(C)c1cc(Br)cc([C@H](CC(=O)O)NC(=O)CNC(=O)c2cc(O)cc(NC3=NCC(O)CN3)c2)c1 (stereo partly drawn) [Example 1, (3S)—N-[3-hydroxy-5-[(1,4,5,6-tetrahydro-5-hydroxy-2-pyrimidinyl)amino]benzoyl]glycyl-3-(3-bromo-5-tert-butylphenyl)-β-alanine]
[1]
  IC50: 2.5 nM
αvβ5
  IC50: 51.7 nM
